Measurements taken from patent US20230181624A1, “COMPOSITIONS AND METHODS FOR TREATMENT OF GASTROINTESTINAL BLEEDING” (Intact Therapeutics, Inc., priority 2020, published 2023).

Assays:
mouse tail = test: Mouse tail-snip assay (bleeding time); assay type: in vivo; details: amputated tail submerged in 1.5 ml of test formulation; compared with water
Method: A formulation of the invention was tested for the ability to prevent bleeding using a mouse tail-snip assay. A portion of tail one centimeter in length was amputated from an anesthetized mouse, and the remaining portion of the tail was immediately submerged in 1.5 ml of test formulation. Bleeding time was recorded as time from amputation to complete cessation of bleeding. The following formulations were tested: water; a solution of 5% tranexamic acid (TXA) in water; a gelled formulation containing Poloxamer 407 (TDP); and a gelled formulation containing 5% tranexamic acid and TDP. Each formulation was tested on seven animals total over the course of three experiments.
FIG. 8 is a graph showing bleeding time of mouse tails exposed to various formulations in a mouse tail-snip assay. *P<0.05, **P<0.01, ***P<0.001, ****P<0.0001, based on one-way ANOVA with the Tukey post-test.

[1] = Drug release from solidified Poloxamer 407 thermogel; assay type: physicochemical; details: within 3 hours
Text: The properties of thermogels based on Poloxamer 407 were investigated. Poloxamer 407 has a molecular weight of 12,000 Da and a PEO/PPO ratio of 2:1 by weight, and it is Generally Recognized As Safe (GRAS) by the FDA.

Row | SMILES | bleeding time (mouse tail) | drug being delivered [1] [%]
1 | NC[C@H]1CC[C@H](C(=O)O)CC1 [TXA, tranexamic acid] | decrease bleeding time | 
2 | CCN(CC)CC(=O)Nc1c(C)cccc1C [lidocaine] |  | ~60
